We go through 16 compounds from patent publication US20240279236A1, “COMPOUNDS AND METHODS OF TREATING TUBERCULOSIS” (Fimbrion Therapeutics, Inc., priority 2021, published 2024).

The subject of the test is WT Mtb Erdman strain. As to the kind of experiment: Microplate Alamar Blue Assay (MABA), Mtb growth inhibition. It counts as cell-based, Mycobacterium tuberculosis. Conditions: Mycobacterium tuberculosis, ERDMAN, 168 h, Middlebrook 7H9 media, 7 days at 37° C. in 5% CO2.
`CCc1nc(NCCCc2ccc(O)cc2)c2cc(C)sc2n1` [Example 70, 4-(3-((2-ethyl-6-methylthieno[2,3-d]pyrimidin-4-yl)amino)propyl) phenol] registered an IC50 of 230 nM.

`CSc1nc(NCCCOc2ccc(Cl)cc2)c2cc(C)sc2n1` [Example 71, N-(3-(4-chlorophenoxy)propyl)-6-methyl-2-(methylthio)thieno[2,3-d]pyrimidin-4-amine] yielded a concentration for half-maximal inhibition (IC50) of 350 nM.

For the compound `Cc1cc2c(NCCCOc3ccc(Cl)cc3)nc(C(F)(F)F)nc2s1` [Example 72, N-(3-(4-chlorophenoxy)propyl)-6-methyl-2-(trifluoromethyl)thieno [2,3-d]pyrimidin-4-amine], the 50% inhibitory concentration (IC50) came out at 3900 nM.

Compound `Cc1cc2c(NCCCc3ccccc3)nc(C(C)(C)N)nc2s1` [Example 73, 2-(2-aminopropan-2-yl)-6-methyl-N-(3-phenylpropyl)thieno [2,3-d]pyrimidin-4-amine] displayed a 50% inhibitory concentration (IC50) greater than 10000 nM.

In turn, `Cc1cc2c(NCCCc3ccccc3)nc(CS(C)(=O)=O)nc2s1` [Example 74, 6-methyl-2-((methylsulfonyl)methyl)-N-(3-phenylpropyl)thieno [2,3-d]pyrimidin-4-amine] yielded a concentration for half-maximal inhibition (IC50) greater than 10000 nM.

`CSCc1nc(NCCCc2ccccc2)c2cc(C)sc2n1` [Example 75, 6-methyl-2-((methylthio)methyl)-N-(3-phenylpropyl)thieno [2,3-d]pyrimidin-4-amine] had a 50% inhibitory concentration (IC50) of 2000 nM.

With `CCSc1nc(NCCCc2ccccc2)c2cc(C)sc2n1` [Example 76, 2-(ethylthio)-6-methyl-N-(3-phenylpropyl)thieno [2,3-d]pyrimidin-4-amine], half-maximal inhibition (IC50) required 92 nM.

Take `Cc1cc2c(NCCCc3ccccc3)nc(N(C)C)nc2s1` [Example 77, N2,N2,6-trimethyl-N4-(3-phenylpropyl)thieno [2,3-d]pyrimidine-2,4-diamine]: the IC50 is 140 nM.

Compound `Cc1cc2c(NCCCc3ccccc3)nc(-c3ccncn3)nc2s1` [Example 78, 6-methyl-N-(3-phenylpropyl)-2-(pyrimidin-4-yl)thieno[2,3-d]pyrimidin-4-amine] yielded an IC50 of 160 nM.

As for `Cc1cc2c(NCCCc3ccc(OC(F)(F)F)cc3)nc(-c3ccncn3)nc2s1` [Example 79, 6-methyl-2-(pyrimidin-4-yl)-N-(3-(4-(trifluoromethoxy)phenyl)propyl)thieno [2,3-d]pyrimidin-4-amine], the IC50 was determined as 480 nM.

The compound `CCc1nc(NCCCNc2ccccc2)c2cc(C)sc2n1` [Example 80, N1-(2-ethyl-6-methylthieno[2,3-d]pyrimidin-4-yl)-N3-phenylpropane-1,3-diamine] had a half-maximal inhibitory concentration (IC50) of 470 nM.

The compound `COCc1nc(NCCCc2ccccc2)c2cc(C)sc2n1` [Example 81, 2-(methoxymethyl)-6-methyl-N-(3-phenylpropyl)thieno [2,3-d]pyrimidin-4-amine] yielded an IC50 of 3000 nM.

Take `Cc1cc2c(NCCCc3ccc(OC(F)(F)F)cc3)nc(-c3ccc(F)cc3)nc2s1` [Example 82, 2-(4-fluorophenyl)-6-methyl-N-(3-(4-(trifluoromethoxy)phenyl)propyl)thieno[2,3-d]pyrimidin-4-amine]: half-maximal inhibition (IC50) was put at 1100 nM.

With `Cc1cc2c(NCCCc3ccc(O)cc3)nc(-c3ccc(F)cc3)nc2s1` [Example 83, 4-(3-((2-(4-fluorophenyl)-6-methylthieno[2,3-d]pyrimidin-4-yl)amino)propyl) phenol], the IC50 is 2500 nM.

`Fc1ccc(-c2nc(N[C@@H]3C[C@H]3c3ccc(F)c(F)c3)c3cc(C(F)(F)F)sc3n2)cc1` [Example 85, N-((1R,2S)-2-(3,4-difluorophenyl)cyclopropyl)-2-(4-fluorophenyl)-6-(trifluoromethyl)thieno [2,3-d]pyrimidin-4-amine] displayed an IC50 greater than 6800 nM.

In turn, `CCc1nc(NCCCc2ccccc2)c2cc(CC)sc2n1` [Example 86, 2,6-diethyl-N-(3-phenylpropyl)thieno [2,3-d]pyrimidin-4-amine] had an IC50 greater than 1200 nM.

As usually defined, the IC50 is the concentration that inhibits the measured activity by half.
